Results as given in patent publication US20230346952A1, “CANNABINOID GLYCOSIDE PRODRUGS AND METHODS OF SYNTHESIS” (priority 2015, published 2023).

Columns and labels:
Assay in all cases: biochemical
[1] = target: safety screen panel of human pharmacological targets (Homo sapiens, UniProt P43681); conditions: read-out: percent inhibition: N neuronal alpha 4beta 2 h) (agonist radioligand)
[2] = target: safety screen panel of human pharmacological targets (Homo sapiens, UniProt Q14432); conditions: read-out: percent inhibition: PDE3A (h)
[3] = target: safety screen panel of human pharmacological targets (Homo sapiens, UniProt P41595); conditions: read-out: percent inhibition: 5-HT2B (h) (agonist radioligand)
[4] = target: safety screen panel of human pharmacological targets (Homo sapiens, UniProt P21728); conditions: read-out: percent inhibition: D1 (h) (antagonist radioligand)
[5] = target: safety screen panel of human pharmacological targets (Homo sapiens, UniProt Q01959); conditions: read-out: percent inhibition: dopamine transporter (b) (antagonist radioligand)
[6] = target: T1, safety screen panel of human pharmacological targets (Homo sapiens, UniProt P08172); conditions: read-out: percent inhibition: M2 (h) (antagonist radioligand)
T1 sequence (P08172 1-466): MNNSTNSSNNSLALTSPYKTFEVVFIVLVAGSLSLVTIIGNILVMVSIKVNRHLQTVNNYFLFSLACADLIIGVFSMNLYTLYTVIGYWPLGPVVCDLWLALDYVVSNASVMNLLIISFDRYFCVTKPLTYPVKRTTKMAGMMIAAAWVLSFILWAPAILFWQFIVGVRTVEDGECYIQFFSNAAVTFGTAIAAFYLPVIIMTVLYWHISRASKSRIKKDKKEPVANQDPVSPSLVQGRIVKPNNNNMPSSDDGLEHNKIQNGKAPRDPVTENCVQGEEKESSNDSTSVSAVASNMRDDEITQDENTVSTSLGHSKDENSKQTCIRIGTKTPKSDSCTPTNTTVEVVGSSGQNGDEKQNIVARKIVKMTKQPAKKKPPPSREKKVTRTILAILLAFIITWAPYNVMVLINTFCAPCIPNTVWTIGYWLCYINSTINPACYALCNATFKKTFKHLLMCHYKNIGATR

[7] = target: T2, safety screen panel of human pharmacological targets (Homo sapiens, UniProt P04150); conditions: read-out: percent inhibition: GR (h) (agonist radioligand)
T2 sequence (P04150 1-777): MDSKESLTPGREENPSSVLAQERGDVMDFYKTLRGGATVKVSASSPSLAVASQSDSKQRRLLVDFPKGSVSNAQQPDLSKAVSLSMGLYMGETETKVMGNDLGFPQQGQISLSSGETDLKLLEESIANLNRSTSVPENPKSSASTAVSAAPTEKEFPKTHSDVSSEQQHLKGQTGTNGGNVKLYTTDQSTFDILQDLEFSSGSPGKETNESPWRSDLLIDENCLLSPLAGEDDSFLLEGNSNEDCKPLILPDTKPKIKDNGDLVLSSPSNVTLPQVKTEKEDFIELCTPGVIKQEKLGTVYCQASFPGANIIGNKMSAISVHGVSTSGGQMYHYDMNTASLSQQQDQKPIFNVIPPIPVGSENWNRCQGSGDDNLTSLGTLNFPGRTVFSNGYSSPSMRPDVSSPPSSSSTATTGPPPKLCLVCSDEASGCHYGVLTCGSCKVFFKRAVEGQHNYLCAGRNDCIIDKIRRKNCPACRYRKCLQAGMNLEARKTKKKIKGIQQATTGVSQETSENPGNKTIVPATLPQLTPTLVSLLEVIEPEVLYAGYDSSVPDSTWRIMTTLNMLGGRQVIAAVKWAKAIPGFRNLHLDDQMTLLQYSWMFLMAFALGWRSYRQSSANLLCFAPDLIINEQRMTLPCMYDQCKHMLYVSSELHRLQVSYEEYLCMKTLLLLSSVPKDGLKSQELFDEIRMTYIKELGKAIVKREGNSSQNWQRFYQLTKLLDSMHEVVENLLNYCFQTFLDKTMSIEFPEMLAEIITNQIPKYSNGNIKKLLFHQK

[8] = target: safety screen panel of human pharmacological targets (Homo sapiens, UniProt P25021); conditions: read-out: percent inhibition: H2 (h) (antagonist radioligand)
[9] = target: safety screen panel of human pharmacological targets (Homo sapiens, UniProt P23219); conditions: read-out: percent inhibition: COX1(h)
[10] = target: T3, safety screen panel of human pharmacological targets (Rattus norvegicus, UniProt P21396); conditions: read-out: percent inhibition: MAO-A (antagonist radioligand)
T3 sequence (P21396 1-526): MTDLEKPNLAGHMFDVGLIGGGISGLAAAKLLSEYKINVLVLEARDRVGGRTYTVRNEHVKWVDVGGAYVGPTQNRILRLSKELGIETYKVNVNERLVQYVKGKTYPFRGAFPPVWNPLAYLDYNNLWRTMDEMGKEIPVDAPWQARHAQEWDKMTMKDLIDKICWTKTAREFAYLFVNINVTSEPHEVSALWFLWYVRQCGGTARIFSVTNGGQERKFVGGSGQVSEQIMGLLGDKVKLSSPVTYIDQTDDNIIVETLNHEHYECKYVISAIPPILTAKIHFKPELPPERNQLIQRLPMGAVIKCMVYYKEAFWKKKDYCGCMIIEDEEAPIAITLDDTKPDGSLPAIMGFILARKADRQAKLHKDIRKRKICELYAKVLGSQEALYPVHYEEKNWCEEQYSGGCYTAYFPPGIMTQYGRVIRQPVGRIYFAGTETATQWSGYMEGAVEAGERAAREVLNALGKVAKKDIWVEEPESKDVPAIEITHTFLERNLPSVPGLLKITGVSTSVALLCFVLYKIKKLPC

[11] = target: safety screen panel of human pharmacological targets (Rattus norvegicus, UniProt P34975); conditions: read-out: percent inhibition: kappa (KOP) (agonist radioligand)
[12] = target: safety screen panel of human pharmacological targets (Homo sapiens, UniProt P20309); conditions: read-out: percent inhibition: M3 (h) (antagonist radioligand)
[13] = target: safety screen panel of human pharmacological targets (Homo sapiens, UniProt P22303); conditions: read-out: percent inhibition: acetylcholinesterase (h)
[14] = target: safety screen panel of human pharmacological targets (Homo sapiens, UniProt P37288); conditions: read-out: percent inhibition: V1a (h) (agonist radioligand)
safety screen panel of human pharmacological targets (Homo sapiens, UniProt P37288), sequence (P37288 whole entry): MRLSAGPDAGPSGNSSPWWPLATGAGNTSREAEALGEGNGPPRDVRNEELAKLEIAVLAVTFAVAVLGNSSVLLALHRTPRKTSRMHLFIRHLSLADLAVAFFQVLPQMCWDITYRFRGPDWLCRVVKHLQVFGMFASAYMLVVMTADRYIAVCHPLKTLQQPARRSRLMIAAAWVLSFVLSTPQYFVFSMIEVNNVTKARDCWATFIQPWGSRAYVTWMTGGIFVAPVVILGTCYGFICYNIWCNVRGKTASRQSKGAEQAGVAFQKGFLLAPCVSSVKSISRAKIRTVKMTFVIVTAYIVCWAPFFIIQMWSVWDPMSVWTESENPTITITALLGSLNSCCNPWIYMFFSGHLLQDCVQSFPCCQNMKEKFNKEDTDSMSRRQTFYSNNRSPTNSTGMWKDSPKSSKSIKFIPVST

safety screen panel of human pharmacological targets (Homo sapiens, UniProt P41595), sequence (P41595 whole entry): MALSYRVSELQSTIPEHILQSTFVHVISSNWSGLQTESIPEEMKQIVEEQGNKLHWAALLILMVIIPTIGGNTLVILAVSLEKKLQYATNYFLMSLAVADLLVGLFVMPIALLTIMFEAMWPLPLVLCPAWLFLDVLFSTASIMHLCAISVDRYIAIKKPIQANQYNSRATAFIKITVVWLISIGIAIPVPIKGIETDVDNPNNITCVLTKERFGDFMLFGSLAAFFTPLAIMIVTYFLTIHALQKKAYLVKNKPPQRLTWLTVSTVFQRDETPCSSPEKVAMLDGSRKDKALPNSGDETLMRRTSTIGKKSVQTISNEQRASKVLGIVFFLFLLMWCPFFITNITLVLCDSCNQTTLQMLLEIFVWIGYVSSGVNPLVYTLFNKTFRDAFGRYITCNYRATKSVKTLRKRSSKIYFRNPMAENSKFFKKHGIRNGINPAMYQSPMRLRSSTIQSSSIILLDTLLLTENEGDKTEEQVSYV
safety screen panel of human pharmacological targets (Homo sapiens, UniProt P23219), sequence (P23219 24-599): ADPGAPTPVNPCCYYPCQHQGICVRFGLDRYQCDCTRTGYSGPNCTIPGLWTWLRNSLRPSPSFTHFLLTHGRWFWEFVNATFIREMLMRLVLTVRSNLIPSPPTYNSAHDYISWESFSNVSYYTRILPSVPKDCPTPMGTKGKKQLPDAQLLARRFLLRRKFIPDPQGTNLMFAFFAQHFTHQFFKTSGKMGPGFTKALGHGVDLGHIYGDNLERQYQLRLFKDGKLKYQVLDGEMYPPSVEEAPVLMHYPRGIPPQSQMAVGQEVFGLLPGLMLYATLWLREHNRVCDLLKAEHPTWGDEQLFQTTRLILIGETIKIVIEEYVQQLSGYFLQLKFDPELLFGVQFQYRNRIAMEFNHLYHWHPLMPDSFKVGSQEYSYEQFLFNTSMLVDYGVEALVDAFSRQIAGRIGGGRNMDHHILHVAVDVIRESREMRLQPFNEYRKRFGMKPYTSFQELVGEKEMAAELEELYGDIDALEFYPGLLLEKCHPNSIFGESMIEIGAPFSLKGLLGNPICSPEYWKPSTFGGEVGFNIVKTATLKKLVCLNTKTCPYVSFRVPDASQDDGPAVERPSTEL
safety screen panel of human pharmacological targets (Homo sapiens, UniProt P25021), sequence (P25021 whole entry): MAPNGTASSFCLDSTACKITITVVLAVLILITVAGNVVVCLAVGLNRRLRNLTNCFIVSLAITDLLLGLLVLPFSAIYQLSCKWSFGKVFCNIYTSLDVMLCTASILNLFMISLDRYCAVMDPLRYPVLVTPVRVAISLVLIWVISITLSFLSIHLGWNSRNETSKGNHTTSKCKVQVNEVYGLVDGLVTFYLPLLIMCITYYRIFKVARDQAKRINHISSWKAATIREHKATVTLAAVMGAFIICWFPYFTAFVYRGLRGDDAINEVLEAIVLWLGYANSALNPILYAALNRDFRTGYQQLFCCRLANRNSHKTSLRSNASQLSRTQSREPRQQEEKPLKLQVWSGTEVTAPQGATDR
safety screen panel of human pharmacological targets (Rattus norvegicus, UniProt P34975), sequence (P34975 whole entry): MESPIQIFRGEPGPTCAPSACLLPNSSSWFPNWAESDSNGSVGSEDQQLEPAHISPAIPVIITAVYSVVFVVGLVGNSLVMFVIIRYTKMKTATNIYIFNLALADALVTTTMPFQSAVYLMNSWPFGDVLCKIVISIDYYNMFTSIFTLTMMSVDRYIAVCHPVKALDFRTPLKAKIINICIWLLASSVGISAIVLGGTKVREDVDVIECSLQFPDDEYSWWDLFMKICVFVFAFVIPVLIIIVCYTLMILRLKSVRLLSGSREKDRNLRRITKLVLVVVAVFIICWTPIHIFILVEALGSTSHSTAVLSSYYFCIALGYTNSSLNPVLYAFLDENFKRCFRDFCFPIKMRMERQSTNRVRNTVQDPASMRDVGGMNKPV
safety screen panel of human pharmacological targets (Homo sapiens, UniProt P21728), sequence (P21728 whole entry): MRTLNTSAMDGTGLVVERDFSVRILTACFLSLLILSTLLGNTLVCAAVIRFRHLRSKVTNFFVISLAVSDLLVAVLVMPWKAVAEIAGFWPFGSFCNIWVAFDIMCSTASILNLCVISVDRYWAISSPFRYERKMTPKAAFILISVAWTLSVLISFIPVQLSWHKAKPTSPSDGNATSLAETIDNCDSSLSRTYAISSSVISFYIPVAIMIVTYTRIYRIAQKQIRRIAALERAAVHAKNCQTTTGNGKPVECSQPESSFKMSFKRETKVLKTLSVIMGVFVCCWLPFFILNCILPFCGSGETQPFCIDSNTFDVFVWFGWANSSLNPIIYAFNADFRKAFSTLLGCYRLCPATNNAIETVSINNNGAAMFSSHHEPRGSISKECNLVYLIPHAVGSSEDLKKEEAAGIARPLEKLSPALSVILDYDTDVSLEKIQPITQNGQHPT
safety screen panel of human pharmacological targets (Homo sapiens, UniProt P43681), sequence (P43681 27-627): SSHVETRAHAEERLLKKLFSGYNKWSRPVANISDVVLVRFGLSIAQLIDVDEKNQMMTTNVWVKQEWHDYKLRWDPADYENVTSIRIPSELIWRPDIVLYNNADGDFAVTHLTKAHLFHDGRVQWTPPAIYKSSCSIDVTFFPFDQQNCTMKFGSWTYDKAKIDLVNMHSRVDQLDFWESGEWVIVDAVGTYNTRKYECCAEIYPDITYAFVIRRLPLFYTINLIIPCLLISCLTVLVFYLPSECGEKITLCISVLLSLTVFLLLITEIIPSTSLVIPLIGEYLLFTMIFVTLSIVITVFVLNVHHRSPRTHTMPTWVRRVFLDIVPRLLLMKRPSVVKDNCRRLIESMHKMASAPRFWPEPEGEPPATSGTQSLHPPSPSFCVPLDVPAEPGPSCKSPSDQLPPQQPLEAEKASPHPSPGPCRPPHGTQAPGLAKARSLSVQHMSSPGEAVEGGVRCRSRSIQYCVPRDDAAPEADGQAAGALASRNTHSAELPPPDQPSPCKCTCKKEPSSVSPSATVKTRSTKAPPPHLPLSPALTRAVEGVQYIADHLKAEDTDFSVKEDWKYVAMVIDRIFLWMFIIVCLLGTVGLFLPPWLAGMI
safety screen panel of human pharmacological targets (Homo sapiens, UniProt Q14432), sequence (Q14432 whole entry): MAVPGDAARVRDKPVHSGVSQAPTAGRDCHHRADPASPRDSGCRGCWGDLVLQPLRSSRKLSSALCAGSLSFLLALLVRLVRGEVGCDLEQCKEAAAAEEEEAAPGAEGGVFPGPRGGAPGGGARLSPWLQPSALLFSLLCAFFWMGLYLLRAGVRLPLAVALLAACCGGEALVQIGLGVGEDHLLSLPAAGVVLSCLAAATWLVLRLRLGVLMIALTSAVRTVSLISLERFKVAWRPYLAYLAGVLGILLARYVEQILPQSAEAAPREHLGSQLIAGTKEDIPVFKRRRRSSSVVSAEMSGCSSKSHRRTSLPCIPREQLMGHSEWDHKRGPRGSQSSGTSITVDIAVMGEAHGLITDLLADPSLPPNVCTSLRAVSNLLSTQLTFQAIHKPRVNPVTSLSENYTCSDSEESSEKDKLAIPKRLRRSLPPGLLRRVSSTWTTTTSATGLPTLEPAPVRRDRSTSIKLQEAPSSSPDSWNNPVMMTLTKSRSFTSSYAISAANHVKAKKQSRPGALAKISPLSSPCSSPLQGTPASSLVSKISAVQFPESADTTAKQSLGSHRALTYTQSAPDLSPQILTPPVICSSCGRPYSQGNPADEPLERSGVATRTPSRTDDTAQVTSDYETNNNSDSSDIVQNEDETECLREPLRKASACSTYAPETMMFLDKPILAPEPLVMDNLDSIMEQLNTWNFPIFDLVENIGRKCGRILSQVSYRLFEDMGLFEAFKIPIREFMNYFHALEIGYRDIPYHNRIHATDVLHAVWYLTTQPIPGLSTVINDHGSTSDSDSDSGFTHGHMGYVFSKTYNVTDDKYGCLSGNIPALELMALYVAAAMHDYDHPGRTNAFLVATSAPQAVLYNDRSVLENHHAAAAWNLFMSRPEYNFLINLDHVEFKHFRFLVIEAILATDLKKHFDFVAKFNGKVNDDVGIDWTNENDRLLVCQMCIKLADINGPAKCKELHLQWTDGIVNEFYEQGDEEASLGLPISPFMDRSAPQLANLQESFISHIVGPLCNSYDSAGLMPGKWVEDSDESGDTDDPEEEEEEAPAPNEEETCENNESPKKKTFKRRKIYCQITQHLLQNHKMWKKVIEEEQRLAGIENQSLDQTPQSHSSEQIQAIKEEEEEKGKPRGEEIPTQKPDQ
safety screen panel of human pharmacological targets (Homo sapiens, UniProt P22303), sequence (P22303 32-614): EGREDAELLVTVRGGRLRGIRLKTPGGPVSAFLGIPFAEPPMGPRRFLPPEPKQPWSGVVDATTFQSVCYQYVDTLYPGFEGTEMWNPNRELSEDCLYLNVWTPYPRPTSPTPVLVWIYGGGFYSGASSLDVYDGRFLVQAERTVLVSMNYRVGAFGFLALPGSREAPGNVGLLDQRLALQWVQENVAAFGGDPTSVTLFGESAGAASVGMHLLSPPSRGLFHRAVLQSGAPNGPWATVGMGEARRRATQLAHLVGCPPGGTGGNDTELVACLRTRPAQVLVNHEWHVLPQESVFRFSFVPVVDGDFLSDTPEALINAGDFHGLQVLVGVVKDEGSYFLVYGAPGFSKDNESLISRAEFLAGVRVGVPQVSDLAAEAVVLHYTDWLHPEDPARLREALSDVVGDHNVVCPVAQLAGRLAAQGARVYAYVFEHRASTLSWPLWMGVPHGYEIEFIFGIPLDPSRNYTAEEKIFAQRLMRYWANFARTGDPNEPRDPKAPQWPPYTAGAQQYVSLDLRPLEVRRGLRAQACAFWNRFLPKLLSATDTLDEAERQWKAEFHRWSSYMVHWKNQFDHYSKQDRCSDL

Structure (SMILES)	inhibition at 10 µM [1] [%]	inhibition at 10 µM [2] [%]	inhibition at 10 µM [3] [%]	inhibition at 10 µM [4] [%]	inhibition at 10 µM [5] [%]	inhibition at 10 µM [6] [%]	inhibition at 10 µM [7] [%]	inhibition at 10 µM [8] [%]	inhibition at 10 µM [9] [%]	inhibition at 10 µM [10] [%]	inhibition at 10 µM [11] [%]	inhibition at 10 µM [12] [%]	inhibition at 10 µM [13] [%]	inhibition at 10 µM [14] [%]
CCCCCc1cc(O)c2c(c1)OC(C)(C)[C@@H]1CCC(C)=C[C@@H]21 [VB301, Δ9-Terahydrocannabinol, reference compound]	1	-4	90	75	101	21	20	-6	9	1	92	23	30	-2
CCCCCc1cc(O[C@@H]2O[C@H](CO)[C@@H](O)[C@H](O)[C@H]2O)c2c(c1)OC(C)(C)[C@@H]1CCC(C)=C[C@@H]21 [VB302, Δ9THC-1-O-glucopyranoside]	7	-44	-5	4	18	2	-8	-11	30	5	20	11	-1	8
CCCCCc1cc(O[C@@H]2O[C@H](CO[C@@H]3O[C@H](CO)[C@@H](O)[C@H](O)[C@H]3O)[C@@H](O[C@@H]3O[C@H](CO)[C@@H](O)[C@H](O)[C@H]3O)[C@H](O)[C@H]2O)c2c(c1)OC(C)(C)[C@@H]1CCC(C)=C[C@@H]21 [VB311]	-1	-6	-7	37	28	-4	12	-10	11	2	4	-5	1	7
